conditions: not given

| Structure (SMILES) | melting point [°C] |
| --- | --- |
| CN(C)CC(c1ccc(OC(=O)C(C)(C)C)cc1)C1(O)CCCCC1 (stereo not shown) [1a, 4-(2-(Dimethylamino)-1-(1-hydroxycyclohexyl)ethyl)phenyl pivalate] | 131 to 133 |
| CN(C)CC(c1ccc(OC(=O)C2CCCCC2)cc1)C1(O)CCCCC1 (stereo not shown) [1b, 4-(2-(Dimethylamino)-1-(1-hydroxycyclohexyl)ethyl)phenyl cyclohexanecarboxylate] | 122 to 124 |
| CC1CCC(C(=O)Oc2ccc(C(CN(C)C)C3(O)CCCCC3)cc2)CC1 (stereo not shown) [1c, 4-(2-(Dimethylamino)-1-(1-hydroxycyclohexyl)ethyl)phenyl 4-methylcyclohexanecarboxylate] | 157 to 159 |
| CC(C)C1CCC(C(=O)Oc2ccc(C(CN(C)C)C3(O)CCCCC3)cc2)CC1 (stereo not shown) [1d, 4-(2-(Dimethylamino)-1-(1-hydroxycyclohexyl)ethyl)phenyl 4-isopropylcyclohexanecarboxylate] | 149 to 152 |
| CN(C)CC(c1ccc(OC(=O)C2CCCCCC2)cc1)C1(O)CCCCC1 (stereo not shown) [1e, 4-(2-(Dimethylamino)-1-(1-hydroxycyclohexyl)ethyl)phenyl cycloheptanecarboxylate] | 110 to 112 |
| CN(C)CC(c1ccc(OC(=O)c2ccoc2)cc1)C1(O)CCCCC1 (stereo not shown) [1g, 4-(2-(Dimethylamino)-1-(1-hydroxycyclohexyl)ethyl)phenyl furan-3-carboxylate] | 159 to 162 |
| CN(C)CC(c1ccc(OC(=O)c2ccsc2)cc1)C1(O)CCCCC1 (stereo not shown) [1h, 4-(2-(Dimethylamino)-1-(1-hydroxycyclohexyl)ethyl)phenyl thiophene-3-carboxylate] | 168 to 172 |
| CN(C)CC(c1ccc(OC(=O)c2cccnc2)cc1)C1(O)CCCCC1 (stereo not shown) [1i, 4-(2-(Dimethylamino)-1-(1-hydroxycyclohexyl)ethyl)phenyl nicotinate] | 180 to 182 |
| COc1ccc(C(=O)Oc2ccc(C(CN(C)C)C3(O)CCCCC3)cc2)cc1 (stereo not shown) [1k, 4-(2-(Dimethylamino)-1-(1-hydroxycyclohexyl)ethyl)phenyl 4-methoxybenzoate] | 133 to 137 |
| CN(C)CC(c1ccc(OC(=O)CCc2ccccc2)cc1)C1(O)CCCCC1 (stereo not shown) [1l, 4-(2-(Dimethylamino)-1-(1-hydroxycyclohexyl)ethyl)phenyl 3-phenylpropanoate] | 124 to 127 |
| CN(C)CC(c1ccc(OC(=O)C=Cc2ccccc2)cc1)C1(O)CCCCC1 (stereo not shown) [1m, 4-(2-(Dimethylamino)-1-(1-hydroxycyclohexyl)ethyl)phenyl cinnamate] | 118 to 122 |
| CN(C)CC(c1ccc(OC(=O)c2ccc3c(c2)OCO3)cc1)C1(O)CCCCC1 (stereo not shown) [1n, 4-(2-(Dimethylamino)-1-(1-hydroxycyclohexyl)ethyl)phenyl benzo[d][1,3]dioxole-5-carboxylate] | 154 to 157 |
| CN(C)CC(c1ccc(OC(=O)c2ccc3c(c2)OCCO3)cc1)C1(O)CCCCC1 (stereo not shown) [1o, 4-(2-(Dimethylamino)-1-(1-hydroxycyclohexyl)ethyl)phenyl 2,3-dihydrobenzo[b][1,4]dioxine-6-carboxylate] | 159 to 162 |

conditions: cited from earlier work

| Structure (SMILES) | bioavailability in humans |
| --- | --- |
| CN(C)CC(c1ccc(O)cc1)C1(O)CCCCC1 (stereo not shown) [ODV, O-Desmethylvenlafaxine] | ca. 80% |

design: method as in PMID 23517291, PMID 23334675; conditions: ODV as the succinate salt; cited from earlier work

| Structure (SMILES) | minimum effective dose [mg/day] |
| --- | --- |
| CN(C)CC(c1ccc(O)cc1)C1(O)CCCCC1 (stereo not shown) [ODV, O-Desmethylvenlafaxine] | 50 |

design: method as in PMID 21925241; conditions: rat, oral administration; cited from earlier work

| Structure (SMILES) | relative bioavailability compared with ODV |
| --- | --- |
| COc1ccc(C(=O)Oc2ccc(C(CN(C)C)C3(O)CCCCC3)cc2)cc1 (stereo not shown) [1k, 4-(2-(Dimethylamino)-1-(1-hydroxycyclohexyl)ethyl)phenyl 4-methoxybenzoate] | higher relative bioavailability than ODV |
